Experimental data taken from paper PMC5028780, “Receptor and transporter binding and activity profiles of albiflorin extracted from Radix paeoniae Alba” (Scientific Reports, 2016).

Experiments:
5-HT1D = 5-HT1D (Homo sapiens, UniProt P28221); test: CNS receptor binding, 5-HT1D; settings: HEK293 cell line, [3H]-LSD(10)
Experimental: (§1) Albiflorin (10 μM) was tested for numerous other potential binding targets by using standard receptor binding procedures. The tested targets included the following receptors: D1, D2, D3, D4, D5, 5-HT1A, 5-HT1B, 5-HT1D, 5-HT2a, 5-HT2C, 5-HT3, 5-HT5A, 5-HT6, 5-HT7, α1A, α1B, α2A, β1, M1, M2, M3, M4, M5, μ, κ, δ, A1, A2A, H1, H2, H3, H4.

D3 = biological target: T1, D3 (Homo sapiens, UniProt P35462); test: CNS receptor binding, dopamine D3; settings: CHO cell lines, [3H]-spiperone(1), read-out: IC50 values for albiflorin
T1 construct: expressed in transfected cells; host or cells: CHO cell lines
Experimental: as §1

hNET [1] = biological target: T2, hNET (Homo sapiens, UniProt P23975); test: Human monoamine transporter binding assay, NET
T2 construct: expressed in transfected cells
T2 sequence (P23975 whole entry): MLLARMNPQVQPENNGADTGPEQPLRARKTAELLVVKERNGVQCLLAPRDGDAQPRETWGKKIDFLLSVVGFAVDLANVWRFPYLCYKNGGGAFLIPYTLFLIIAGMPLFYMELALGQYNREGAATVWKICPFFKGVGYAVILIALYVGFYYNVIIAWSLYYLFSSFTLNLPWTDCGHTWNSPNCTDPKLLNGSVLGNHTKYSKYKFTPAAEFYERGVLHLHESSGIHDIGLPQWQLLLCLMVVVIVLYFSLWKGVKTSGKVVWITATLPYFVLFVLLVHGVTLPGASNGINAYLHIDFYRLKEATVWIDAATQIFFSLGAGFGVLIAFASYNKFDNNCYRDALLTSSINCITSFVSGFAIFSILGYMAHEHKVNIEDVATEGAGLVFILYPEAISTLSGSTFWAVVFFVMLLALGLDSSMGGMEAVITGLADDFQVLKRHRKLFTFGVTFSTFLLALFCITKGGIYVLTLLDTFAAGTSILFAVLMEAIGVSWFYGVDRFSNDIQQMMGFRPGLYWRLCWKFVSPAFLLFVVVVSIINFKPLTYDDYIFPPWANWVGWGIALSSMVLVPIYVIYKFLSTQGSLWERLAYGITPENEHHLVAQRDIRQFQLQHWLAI
Experimental: Membranes were prepared from HEK293 cells stably expressing hSERT, hNET, or hDAT as described previously. Briefly, [^3H]-citalopram (1 nM), [^3H]-nisoxetine (2 nM), or [^3H]-WIN35,428 (2 nM) was used to label human 5-HT, NE, or DA transporters, respectively.
(§2) All data for inhibition curves were analysed by nonlinear regression using Prism software (GraphPad Software Inc., San Diego, CA) to determine IC50 values. For the microdialysis experiments, two-way repeated-measures ANOVA followed by Tukey’s test was used to compare the percentage increase over baseline between groups, time and treatment as independent factors, and time as the repeated factor.

5-HT2C = 5-HT2C (Homo sapiens, UniProt P28335); test: CNS receptor binding, 5-HT2C; settings: CHO cell lines, [3H]-mesulergine(1)
5-HT2C, sequence (P28335 33-458): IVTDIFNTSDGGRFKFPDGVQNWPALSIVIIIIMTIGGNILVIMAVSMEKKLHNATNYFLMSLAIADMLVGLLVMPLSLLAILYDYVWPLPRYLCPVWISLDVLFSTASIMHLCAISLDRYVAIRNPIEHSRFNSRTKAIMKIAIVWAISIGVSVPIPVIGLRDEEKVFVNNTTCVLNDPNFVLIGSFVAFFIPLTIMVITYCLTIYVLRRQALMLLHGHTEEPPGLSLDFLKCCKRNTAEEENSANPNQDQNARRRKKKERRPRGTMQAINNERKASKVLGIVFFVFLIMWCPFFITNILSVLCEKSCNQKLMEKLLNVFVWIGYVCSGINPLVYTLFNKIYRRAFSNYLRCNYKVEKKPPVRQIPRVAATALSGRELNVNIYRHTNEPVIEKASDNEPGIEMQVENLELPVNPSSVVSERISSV
Experimental: as §1

α1A = α1A (Rattus norvegicus, UniProt P43140); test: CNS receptor binding, NE receptor α1A; settings: Rat Frontal cortex, [3H]-parzosin(1)
α1A, sequence (P43140 whole entry): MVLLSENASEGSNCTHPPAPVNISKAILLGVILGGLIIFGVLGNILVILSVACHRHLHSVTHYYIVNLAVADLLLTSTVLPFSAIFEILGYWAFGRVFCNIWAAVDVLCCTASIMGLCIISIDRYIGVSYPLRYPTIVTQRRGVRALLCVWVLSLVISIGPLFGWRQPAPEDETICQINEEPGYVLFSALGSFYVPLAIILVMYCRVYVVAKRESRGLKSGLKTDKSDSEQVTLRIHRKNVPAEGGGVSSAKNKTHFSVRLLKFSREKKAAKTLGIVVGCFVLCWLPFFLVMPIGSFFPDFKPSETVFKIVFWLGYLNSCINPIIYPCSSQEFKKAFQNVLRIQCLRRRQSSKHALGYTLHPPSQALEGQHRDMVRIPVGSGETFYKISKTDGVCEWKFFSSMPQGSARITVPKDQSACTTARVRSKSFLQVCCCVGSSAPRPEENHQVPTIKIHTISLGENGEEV
Experimental: as §1

5-HT1B = 5-HT1B (Homo sapiens, UniProt P28222); test: CNS receptor binding, 5-HT1B; settings: HEK293 cell line, [3H]-LSD(6)
Experimental: as §1

SERT = biological target: T3, SERT (Rattus norvegicus, UniProt P31652); test: Rat synaptosome uptake assay, [3H]-5-HT; type: biochemical; settings: Mid brain synaptosome
T3 construct: rat brain synaptosomes were prepared and treated with various concentrations of albiflorin; from tissue; host or cells: Sprague-Dawley rat brain synaptosomes (cerebral cortex in the text)
Experimental: Male Sprague–Dawley rats were killed by asphyxiation with carbon dioxide and cervical dislocation followed by decapitation. […] All dissected tissues were homogenised using a Teflon-glass tissue homogeniser in 4 mL of ice-cold sucrose (0.32 M). The homogenised tissue was centrifuged at 2,000× g for 10 min at 4 °C. […] Bio-Rad protein assay reagents (1:5 ratio) were used to analyse the protein concentration of the synaptosomal suspension. Uptake of 5-HT, NE and DA was determined as described previously. The compounds to be tested were dissolved in DMSO, further diluted with assay buffer, and tested over a 10-log unit concentration range in duplicate. Samples of 30–50 μg of synaptosomes (per sample in a total volume of 200 μL) were preincubated at 37 °C in a shaking water bath for 10 min. Vehicle or modifiers were then added for 10–20 min. Uptake was initiated by adding [^3H]-5-HT (20 nM), [^3H]-NE (20 nM), or [^3H]-DA (50 nM). After a 10-min incubation at 37 °C, uptake was terminated by filtration through (polyethyleneimine-coated) GF/B Whatman filters using a Brandel Cell Harvester (Brandel, Gaithersburg, MD).
All data for inhibition curves were analysed by nonlinear regression using Prism software (GraphPad Software Inc., San Diego, CA) to determine IC50 values. […]

μ = μ (Homo sapiens, UniProt P35372); test: CNS receptor binding, opioid μ; settings: CHO cell line, [3H]-dipnorphine(1)
μ, sequence (P35372 whole entry): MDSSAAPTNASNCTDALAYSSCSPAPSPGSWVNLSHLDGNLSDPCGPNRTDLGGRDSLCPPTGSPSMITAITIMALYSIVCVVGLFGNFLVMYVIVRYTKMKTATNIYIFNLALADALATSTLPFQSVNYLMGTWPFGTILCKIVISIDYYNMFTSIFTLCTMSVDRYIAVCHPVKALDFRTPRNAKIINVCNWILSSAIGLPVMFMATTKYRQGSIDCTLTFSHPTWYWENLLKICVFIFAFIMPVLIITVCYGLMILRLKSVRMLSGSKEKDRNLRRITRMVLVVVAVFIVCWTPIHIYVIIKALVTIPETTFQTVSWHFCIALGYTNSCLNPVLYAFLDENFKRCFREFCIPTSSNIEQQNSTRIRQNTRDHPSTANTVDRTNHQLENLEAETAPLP
Experimental: as §1

M2 = M2 (Homo sapiens, UniProt P08172); test: CNS receptor binding, muscarinic M2; settings: HEK293 cell line, [3H]-NMS(1)
M2, sequence (P08172 whole entry): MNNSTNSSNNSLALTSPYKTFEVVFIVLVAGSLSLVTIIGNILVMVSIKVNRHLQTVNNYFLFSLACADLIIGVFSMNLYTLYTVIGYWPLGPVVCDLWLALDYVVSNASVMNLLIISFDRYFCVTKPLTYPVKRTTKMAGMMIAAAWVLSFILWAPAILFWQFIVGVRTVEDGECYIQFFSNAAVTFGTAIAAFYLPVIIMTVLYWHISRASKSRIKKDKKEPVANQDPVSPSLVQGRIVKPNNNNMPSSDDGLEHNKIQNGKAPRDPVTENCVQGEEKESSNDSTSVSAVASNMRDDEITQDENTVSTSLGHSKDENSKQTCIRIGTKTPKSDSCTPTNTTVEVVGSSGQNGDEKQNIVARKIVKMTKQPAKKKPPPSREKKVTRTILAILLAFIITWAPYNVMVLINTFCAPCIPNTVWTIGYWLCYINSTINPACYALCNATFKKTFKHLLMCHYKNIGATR
Experimental: as §1

M3 = M3 (Homo sapiens, UniProt P20309); test: CNS receptor binding, muscarinic M3; settings: CHO cell line, [3H]-NMS(1)
M3, sequence (P20309 whole entry): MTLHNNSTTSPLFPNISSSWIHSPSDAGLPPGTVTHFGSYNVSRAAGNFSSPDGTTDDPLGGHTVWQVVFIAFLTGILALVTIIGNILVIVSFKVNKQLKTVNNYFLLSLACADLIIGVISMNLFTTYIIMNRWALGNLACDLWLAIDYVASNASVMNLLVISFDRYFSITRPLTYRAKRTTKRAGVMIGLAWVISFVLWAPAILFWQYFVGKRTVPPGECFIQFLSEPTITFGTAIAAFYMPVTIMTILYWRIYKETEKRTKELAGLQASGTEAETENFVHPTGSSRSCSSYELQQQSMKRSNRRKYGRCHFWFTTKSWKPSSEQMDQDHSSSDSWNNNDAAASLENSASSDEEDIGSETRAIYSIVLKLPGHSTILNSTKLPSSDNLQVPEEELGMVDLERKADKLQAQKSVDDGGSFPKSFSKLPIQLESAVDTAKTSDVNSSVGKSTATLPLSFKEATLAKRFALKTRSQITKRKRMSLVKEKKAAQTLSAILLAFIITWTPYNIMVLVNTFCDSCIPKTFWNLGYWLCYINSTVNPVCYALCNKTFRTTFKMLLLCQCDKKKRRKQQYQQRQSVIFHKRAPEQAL
Experimental: as §1

D2 = biological target: T4, D2 (Homo sapiens, UniProt P14416); test: CNS receptor binding, dopamine D2; settings: HEK293 cell line, [3H]-spiperone(1)
T4 construct: expressed in transfected cells; host or cells: HEK293 cell line
T4 sequence (P14416 whole entry): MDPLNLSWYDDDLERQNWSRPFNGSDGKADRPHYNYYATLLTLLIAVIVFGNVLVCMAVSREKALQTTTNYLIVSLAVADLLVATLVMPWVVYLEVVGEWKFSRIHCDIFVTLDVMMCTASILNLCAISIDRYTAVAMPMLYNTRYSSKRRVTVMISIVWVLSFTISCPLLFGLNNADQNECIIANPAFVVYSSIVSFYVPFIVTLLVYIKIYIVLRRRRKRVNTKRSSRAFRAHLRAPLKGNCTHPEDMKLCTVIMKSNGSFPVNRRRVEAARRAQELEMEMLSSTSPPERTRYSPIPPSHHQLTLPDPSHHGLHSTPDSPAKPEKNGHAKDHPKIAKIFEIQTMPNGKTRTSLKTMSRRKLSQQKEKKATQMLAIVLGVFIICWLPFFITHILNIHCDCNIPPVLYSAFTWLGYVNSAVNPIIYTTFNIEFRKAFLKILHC
Experimental: as §1

D5 = D5 (Homo sapiens, UniProt P21918); test: CNS receptor binding, dopamine D5; settings: HEK293 cell line, [3H]-SCH23390(1)
D5, sequence (P21918 whole entry): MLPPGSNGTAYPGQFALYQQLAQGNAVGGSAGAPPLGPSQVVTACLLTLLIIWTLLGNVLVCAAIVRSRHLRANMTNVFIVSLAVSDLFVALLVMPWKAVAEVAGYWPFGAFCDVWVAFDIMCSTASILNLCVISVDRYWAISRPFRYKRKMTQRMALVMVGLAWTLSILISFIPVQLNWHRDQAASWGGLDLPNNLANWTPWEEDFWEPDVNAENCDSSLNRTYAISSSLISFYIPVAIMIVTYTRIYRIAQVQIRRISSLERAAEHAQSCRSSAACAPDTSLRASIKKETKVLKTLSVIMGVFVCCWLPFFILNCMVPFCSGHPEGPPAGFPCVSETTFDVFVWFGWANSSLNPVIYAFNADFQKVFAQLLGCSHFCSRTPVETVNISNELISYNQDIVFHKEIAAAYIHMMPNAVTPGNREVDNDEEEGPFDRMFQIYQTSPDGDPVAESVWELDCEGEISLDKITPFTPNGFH
Experimental: as §1

D4 = biological target: T5, D4 (Homo sapiens, UniProt P21917); test: CNS receptor binding, dopamine D4; settings: HEK293 cell line, [3H]-spiperone(1)
T5 construct: expressed in transfected cells; host or cells: HEK293 cell line
T5 sequence (P21917 whole entry): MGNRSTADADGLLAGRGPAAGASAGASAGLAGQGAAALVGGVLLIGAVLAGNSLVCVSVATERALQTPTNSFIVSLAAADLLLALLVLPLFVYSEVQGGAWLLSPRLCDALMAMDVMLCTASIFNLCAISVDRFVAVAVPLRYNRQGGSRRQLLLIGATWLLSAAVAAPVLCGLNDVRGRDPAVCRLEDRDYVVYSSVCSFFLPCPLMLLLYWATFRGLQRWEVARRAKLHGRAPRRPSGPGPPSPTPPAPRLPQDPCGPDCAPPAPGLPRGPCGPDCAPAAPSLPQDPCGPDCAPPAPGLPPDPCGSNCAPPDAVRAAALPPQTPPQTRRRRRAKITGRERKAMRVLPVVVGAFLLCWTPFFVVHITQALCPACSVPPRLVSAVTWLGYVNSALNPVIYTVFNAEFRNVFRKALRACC
Experimental: as §1

M5 = M5 (Homo sapiens, UniProt P08912); test: CNS receptor binding, muscarinic M5; settings: CHO cell line, [3H]-NMS(1)
M5, sequence (P08912 whole entry): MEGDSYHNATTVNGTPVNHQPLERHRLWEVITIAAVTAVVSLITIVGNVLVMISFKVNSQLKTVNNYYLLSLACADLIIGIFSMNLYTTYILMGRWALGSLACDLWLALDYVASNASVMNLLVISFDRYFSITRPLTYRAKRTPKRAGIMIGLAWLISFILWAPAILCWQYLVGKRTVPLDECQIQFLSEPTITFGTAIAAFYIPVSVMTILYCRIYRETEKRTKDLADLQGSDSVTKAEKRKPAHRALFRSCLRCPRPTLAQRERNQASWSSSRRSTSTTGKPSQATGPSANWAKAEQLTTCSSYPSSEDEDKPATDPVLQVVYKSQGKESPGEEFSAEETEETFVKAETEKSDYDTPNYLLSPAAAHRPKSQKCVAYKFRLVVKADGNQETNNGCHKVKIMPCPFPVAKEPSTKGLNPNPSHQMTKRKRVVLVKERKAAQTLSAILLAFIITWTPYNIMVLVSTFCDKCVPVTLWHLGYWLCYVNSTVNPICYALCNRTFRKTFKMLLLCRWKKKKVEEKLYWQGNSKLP
Experimental: as §1

duration of immobility = tested on: duration of immobility; parameters: method as in PMID 26719283; settings: mice; short- and long-term administration; cited from earlier work
sucrose consumption = tested on: sucrose consumption; parameters: method as in PMID 26719283; settings: rats; chronic unpredicted mild stress; cited from earlier work
hNET [2] = biological target: T2, hNET; test: [3H]-NE uptake in transporter-transfected HEK293 cells; type: cell-based; settings: HEK293 cell line, read-out: IC50 values, uptake of [3H]-NE (NET)
Experimental: The uptake of 5-HT, NE and DA into HEK293 cells stably expressing human transporters was determined using methods previously described with slight modifications. Briefly, the culture medium was removed from cells, and the cells were washed once with phosphate-buffered saline. Krebs-Ringers-HEPES (KRH) assay buffer (100 μL/well, containing 120 mM NaCl, 4.7 mM KCl, 2.2 mM CaCl2, 1.2 mM MgSO4, 1.2 mM […], 10 mM HEPES, pH 7.4) was then added. Various concentrations of drugs were administered to cells in a 24-well plate. The uptake was initiated by the addition of [^3H]-5-HT (50 nM), [^3H]-NE (80 nM), or [^3H]-DA (50 nM). Uptake was terminated by five washes using cold KRH assay buffer after 10-min incubation at 37 °C. The cells were solubilised using 400 μL of scintillation fluid and counted using a Packard Top Count scintillation counter.
as §2

[3] = read-out: IC50 values for albiflorin

Question: With `C[C@]12C[C@@H](O)[C@@H]3C[C@@]1(O[C@@H]1O[C@H](CO)[C@@H](O)[C@H](O)[C@H]1O)[C@@]3(COC(=O)c1ccccc1)C(=O)O2` [albiflorin, Albiflorin] as the molecule, how does the “% Inhibition of binding at 10 μM albiflorin” value (“% Inhibition of binding” below) (5-HT1D) read?
Answer: Its value is 22.36%.

Question: And the IC50 (5-HT1D; [3])?
Answer: Its IC50 is greater than 10 µM.

Question: What about the IC50 (D3) of the same molecule?
Answer: The IC50 was 3.66 ± 0.212 µM.

Question: What about the Ki (hNET [1]; Human, [3H]-nisoxetine, HEK293 cell line) of the same molecule?
Answer: The Ki was 0.00123 ± 7e-05 µM.

Question: What about the “affinity relative to desipramine in hNET binding assay” value (hNET [1]; albiflorin vs desipramine) of the same molecule?
Answer: The value was 4 fold.

Question: And the “% Inhibition of binding” value (5-HT2C)?
Answer: Its value is 33.66%.

Question: What about the IC50 (5-HT2C; [3]) of the same molecule?
Answer: The IC50 was greater than 10 µM.

Question: And the “% Inhibition of binding” value (α1A)?
Answer: Its value is 56.33%.

Question: And the IC50 (α1A; [3])?
Answer: The IC50 was 4.71 ± 0.113 µM.

Question: What about the “% Inhibition of binding” value (5-HT1B) of the same molecule?
Answer: Its value is 16.60%.

Question: And the IC50 (5-HT1B; [3])?
Answer: Its IC50 is greater than 10 µM.

Question: And the IC50 (SERT)?
Answer: The IC50 was 0.00304 ± 0.00084 µM.

Question: And the “% Inhibition of binding” value (μ)?
Answer: The value was 23.66%.

Question: And the IC50 (μ; [3])?
Answer: Its IC50 is greater than 10 µM.

Question: What about the “% Inhibition of binding” value (M2) of the same molecule?
Answer: The value was 13.33%.

Question: And the IC50 (M2; [3])?
Answer: Its IC50 is greater than 10 µM.

Question: And the “% Inhibition of binding” value (M3)?
Answer: The value was 25.66%.

Question: What about the IC50 (M3; [3]) of the same molecule?
Answer: The IC50 was greater than 10 µM.

Question: What about the “% Inhibition of binding” value (D2) of the same molecule?
Answer: The value was 12.50%.

Question: What about the IC50 (D2; [3]) of the same molecule?
Answer: The IC50 was greater than 10 µM.

Question: And the “% Inhibition of binding” value (D5)?
Answer: The value was 32.50%.

Question: And the IC50 (D5; [3])?
Answer: Its IC50 is greater than 10 µM.

Question: And the “% Inhibition of binding” value (D4)?
Answer: The value was 19.50%.

Question: And the IC50 (D4; [3])?
Answer: Its IC50 is greater than 10 µM.

Question: What about the “% Inhibition of binding” value (M5) of the same molecule?
Answer: The value was 20.11%.

Question: And the IC50 (M5; [3])?
Answer: The IC50 was greater than 10 µM.

Question: What about the “antidepressant-like effect, tail-suspension test” value (duration of immobility) of the same molecule?
Answer: The value was “decreases in the duration of immobility”.

Question: And the “antidepressant-like effect, sucrose consumption” value (sucrose consumption)?
Answer: Its value is “reversal of chronic unpredicted mild stress-induced inhibition of sucrose consumption”.

Question: And the IC50 (hNET [2])?
Answer: The IC50 was 0.00036 ± 8e-05 µM.
